Here are results for 14 molecules from ChEMBL document CHEMBL4038298, “Ester- and amide-containing multiQACs: Exploring multicationic soft antimicrobial agents” (Bioorg Med Chem Lett, 2017).

The nature of data set [1]: Stability in buffer solution assessed as decomposition at pH 10 by LCMS analysis. The data set is classed as physicochemical.
Data set [2] has as its system Staphylococcus aureus. In words: Antibacterial activity against community acquired methicillin-resistant Staphylococcus aureus USA300-0114 incubated for 72 hrs. The data set is classed as functional. Conditions: USA300-0114, 72 h.
Data set [3] has as its system Staphylococcus aureus. The data set can be described thus: Antibacterial activity against hospital-acquired methicillin-resistant Staphylococcus aureus ATCC 33592 incubated for 72 hrs. The class given is functional. The note with it: ATCC 33592, 72 h.
Data set [4] concerns Pseudomonas aeruginosa. In words: Antibacterial activity against Pseudomonas aeruginosa PAO1 incubated for 72 hrs. The data set is classed as functional. Conditions: PAO1, 72 h.
Data set [5] is described as follows: Stability in buffer solution assessed as decomposition at pH 4 by LCMS analysis. The class given is physicochemical.
Data set [6] relates to Staphylococcus aureus. In words: Antibacterial activity against methicillin-susceptible Staphylococcus aureus SH1000 incubated for 72 hrs. The data set is classed as functional. The note with it: SH1000, 72 h.
Data set [7] in a line: Stability of the compound in pure water up to 72 hrs by LCMS analysis. The note with it: read-out: Stability. The data set is classed as physicochemical.
Data set [8] relates to Enterococcus faecalis. The data set can be described thus: Antibacterial activity against Enterococcus faecalis OG1RF incubated for 72 hrs. The class given is functional.
Data set [9] is described as follows: Half life at pH 7 buffer solution by LCMS method.
Data set [10] concerns Escherichia coli. The data set can be described thus: Antibacterial activity against Escherichia coli MC4100 incubated for 72 hrs. The data set is classed as functional. Conditions: str. K-12 substr. MC4100, 72 h.
Data set [11] can be described thus: Ratio of MIC for community acquired methicillin-resistant Staphylococcus aureus USA300-0114 to HC20 for sheep RBC assessed as compound concentration required for <20% hemolysis.
Data set [12] in a line: Stability of the compound in pure water by LCMS method. The class given is physicochemical.
The nature of data set [13]: Ratio of MIC for Enterococcus faecalis OG1RF to HC20 for sheep RBC assessed as compound concentration required for <20% hemolysis.
Data set [14] is described as follows: Solubility of the compound in buffer solution at pH 10 by LCMS analysis. The class given is physicochemical.
The nature of data set [15]: Stability in buffer solution at pH 7 after 16 hrs by LCMS analysis. The note with it: read-out: Stability. The data set is classed as physicochemical.
Data set [16] in a line: Stability in buffer solution at pH 10 after 16 hrs by LCMS analysis. The data set is classed as physicochemical. Conditions: read-out: Stability.

Where only a bound is given, the exact number is not on record here.

For orientation: MIC means the lowest concentration found to suppress growth. The low end stands for inhibition by little substance, the high end for a need for much substance.

Take `CCCCCCCCCCOC(=O)C[N+](C)(C)CCN1CC[N+](C)(CC(=O)OCCCCCCCCCC)CC1.[Br-].[Br-]`: the Stability entry in data set [1] and in [5] was “Unstable” in each case. In addition, the minimum inhibitory concentration (MIC) in data set [2] was determined as 2 µM; in [3], 2 µM; in [4], 16 µM; in [6], 2 µM; in data set [8], 4 µM; in data set [10] it was 2 µM. In addition, in [7], the remaining at 72 h was not below 90%. The molecule further had a T1/2 in data set [9] of 3 h.
In the case of `CCCCCCCCCCCCCCOC(=O)C[N+](C)(C)CCCN(CCC[N+](C)(C)CC(=O)OCCCCCCCCCCCCCC)CCC[N+](C)(C)CC(=O)OCCCCCCCCCCCCCC.[Br-].[Br-].[Br-]`, the Ratio in data set [11] and in data set [13] was 4 in each case. The Stability result in [12] is given as “Stable”. Besides, the MIC was determined as 16 µM in data set [2]; 32 µM in data set [3]; 250 µM in data set [4]; 125 µM in data set [6]; 16 µM in data set [8]; 32 µM in data set [10].
On to `CCCCCCCCCCNC(=O)C[N+](C)(C)CCN1CC[N+](C)(CC(=O)NCCCCCCCCCC)CC1.[Br-].[Br-]`, for which the solubility result in [14] was “Insoluble”. Further, the Stability entry in [1] was “Unstable”. Besides, the MIC was 0.5 µM in [2]; 0.5 µM in [3]; 2 µM in data set [4]; 0.5 µM in [6]; 0.5 µM in data set [8]; 1 µM in data set [10]. The remaining at 16 h in [15] and in [16] was more than 80% each time. In addition, in data set [7], the remaining at 72 h is not below 90%.
Consider `CCCCCCCCCCNC(=O)C[N+](C)(C)CCCN(CCC[N+](C)(C)CC(=O)NCCCCCCCCCC)CCC[N+](C)(C)CC(=O)NCCCCCCCCCC.[Br-].[Br-].[Br-]`, for which the solubility entry in data set [14] was “Insoluble”. In addition, the Stability entry in data set [1] is “Unstable”. The MIC in data set [2] worked out at 0.5 µM; in [3] it was 1 µM; in data set [4] it was 8 µM; in [6], 1 µM; in data set [8] it was 1 µM; in data set [10] it was 1 µM. The remaining at 16 h in data set [15] and in data set [16] was more than 80% each time. Besides, in data set [7], the remaining at 72 h was not below 90%.
Regarding `CCCCCCCCCCOC(=O)C[N+](C)(C)CCCN(CCC[N+](C)(C)CC(=O)OCCCCCCCCCC)CCC[N+](C)(C)CC(=O)OCCCCCCCCCC.[Br-].[Br-].[Br-]`, the Stability entry in data set [1] and in [5] was “Unstable” in each case. Moreover, the minimum inhibitory concentration (MIC) in [2] turned out to be 4 µM; in [3] it was 4 µM; in data set [4], 16 µM; in [6], 2 µM; in [8] it was 8 µM; in data set [10], 8 µM. Also, in data set [7], the remaining at 72 h was not below 90%. The same molecule had a T1/2 in data set [9] of 3 h.
In the case of `CCCCCCCCCCCCOC(=O)C[N+](C)(C)CCN1CC[N+](C)(CC(=O)OCCCCCCCCCCCC)CC1.[Br-].[Br-]`, the Stability result in data set [12] is on record as “Stable”. In addition, the MIC came out at 8 µM in data set [2]; 8 µM in data set [3]; 32 µM in [4]; 8 µM in data set [6]; 32 µM in data set [8]; 16 µM in data set [10].
As to `CCCCCCCCCCCCCCOC(=O)C[N+](C)(C)Cc1ccccc1.[Br-]`, the Stability entry in [12] is given as “Stable”. The minimum inhibitory concentration (MIC) amounted to 2 µM in data set [2]; 1 µM in data set [3]; 250 µM in [4]; 1 µM in data set [6]; 4 µM in data set [8]; 8 µM in [10].
`CCCCCCCOC(=O)C[N+](C)(C)CC[N+](C)(C)CC(=O)OCCCCCCC.[Br-].[Br-]`: the Stability result in [12] is reported as “Stable”. Also, the MIC is 125 µM in data set [2]; 250 µM in data set [3]; more than 250 µM in data set [4]; 250 µM in data set [6]; more than 250 µM in data set [8]; more than 250 µM in data set [10].
Consider `CCCCCCCCCCCCCCOC(=O)C[N+](C)(C)CCC[N+](C)(CCC[N+](C)(C)CC(=O)OCCCCCCCCCCCCCC)CC(=O)OCCCCCCCCCCCCCC.[Br-].[Br-].[Br-]`, for which the Ratio in data set [11] was determined as 4. The Stability entry in data set [12] was “Stable”. Besides, the MIC was determined as 16 µM in data set [2]; 32 µM in data set [3]; 250 µM in data set [4]; 63 µM in [6]; 32 µM in [8]; 63 µM in [10].
Turning to `CCCCCCCCOC(=O)C[N+](C)(C)CCC[N+](C)(CCC[N+](C)(C)CC(=O)OCCCCCCCC)CC(=O)OCCCCCCCC.[Br-].[Br-].[Br-]`, the Stability entry in [12] is “Stable”. For the same molecule, the MIC came to 8 µM in [2]; 8 µM in [3]; 32 µM in data set [4]; 8 µM in [6]; 16 µM in data set [8]; 16 µM in [10].
For the molecule `CCCCCCCCCCCCOC(=O)C[N+](C)(C)CCC[N+](C)(CCC[N+](C)(C)CC(=O)OCCCCCCCCCCCC)CC(=O)OCCCCCCCCCCCC.[Br-].[Br-].[Br-]`, the Stability result in data set [12] is given as “Stable”. Also, the MIC in [2] came out at 8 µM; in data set [3] it was 8 µM; in data set [4] it was 16 µM; in data set [6], 4 µM; in [8], 8 µM; in [10], 8 µM.
With `CCCCCCCCCCNC(=O)C[N+](C)(C)CCC[N+](C)(CCC[N+](C)(C)CC(=O)NCCCCCCCCCC)CC(=O)NCCCCCCCCCC.[Br-].[Br-].[Br-]`, in data set [12], the Stability entry is recorded as “Stable”. The MIC in data set [2] was 1 µM; in data set [3] it was 2 µM; in data set [4], 63 µM; in [6], 1 µM; in data set [8] it was 2 µM; in data set [10], 2 µM.
`CCCCCCCCCCOC(=O)C[N+](C)(C)Cc1ccccc1.[Br-]`: the Stability result in [12] was “Stable”. Besides, the MIC in [2] was 16 µM; in data set [3], 32 µM; in [4], more than 250 µM; in data set [6] it was 32 µM; in [8], 32 µM; in data set [10], 63 µM.
On to `CCCCCCOC(=O)C[N+](C)(C)CCCN(CCC[N+](C)(C)CC(=O)OCCCCCC)CCC[N+](C)(C)CC(=O)OCCCCCC.[Br-].[Br-].[Br-]`, for which the Stability result in data set [12] is listed as “Stable”. Moreover, the MIC in [2] was 63 µM; in data set [3], 250 µM; in [4] it was more than 250 µM; in data set [6], 63 µM; in data set [8], 250 µM; in data set [10], 250 µM.
